Source: patent US5910499A, “Antiallergic agent having an anti-oxidant action” (LTT Institute Co., Ltd., priority 1997, dated 1999)
pIC50: −log10 of the molar value.

Columns and labels:
rat liver microsome = experiment: ADP/Fe^3+ induced lipid peroxidation reaction using rat liver microsome (anti-oxidant action); type: biochemical; conditions: for inhibition action on lipid peroxidation compared with BHT: versus BHT, positive control (FIG. 1)
Method: Test Example 1 [Anti-oxidant-action (lipid peroxide production inhibiting action)]
Compounds II-VII represented by the following formulae [drawing 3] have shown concentration dependent inhibition action on ADP/Fe^3+ induced lipid peroxidation reaction using rat liver microsome.
Test method (ADP/Fe^3+ induced lipid peroxidation reaction)
The method of Kiso et al. was employed. That means, 100 μl of a rat liver microsome suspension (20 mg of protein/ml), 100 μl of a 2 mM NADPH, 100 μl of a 10 mM ADP, and 100 μl of a specimen solution whose concentration was controlled with a 10% N,N-dimethylformamide (DMF) aqueous solution were added to 500 μl of a trihydroxymethylaminomethane (Tris)-HCl buffer solution (167 mM KCl, 74.4 mM Tris, pH 7.4) and heated at 37° C. for 5 minutes. Then 100 μl of 100 μM FeCl3 was added thereto and heated at 37° C. for 20 minutes
To a control was added 100 μl of a 10% DMF aqueous solution instead of the specimen solution. To a blank, 100 μl of a 10% DMF aqueous solution was added instead of the specimen solution, and 300 μl of water was added instead of 100 μl of the NADPH, 100 μl of the FeCl3, and 100 μl of the ADP. The reaction was stopped by cooling with ice, and the amount of the lipid peroxide was calculated as an amount of malondialdehyde according to the method of Ohkawa et al.
That means, 200 μl of a 8.1% sodium dodecyl sulfate (SDS) aqueous solution, 1.5 ml of an acetic acid buffer solution (20% AcOH containing 0.27M HCl was controlled with 10M NaOH to have a pH of 3.5), and 1.5 ml of a 0.8% 2-thiobarbituric acid aqueous solution were added to 1 ml of the reaction mixture and heated in a boiling water bath for 20 minutes Following heating, the reaction was stopped with cooling with ice and 4 ml of n-BuOH-pyridine mixed solution (15:1) was added thereto and mixed vigorously. Then the mixture was subjected to centrifugation at 800×g for 10 minutes and the absorbancy of the supernatant liquid was measured at 532 nm.

[1] = tested on: rat cutaneous anaphylactic reaction (PCA reaction); experiment: Antiallergic action in an orally administered rat, 48 hours homologous PCA reaction; type: in vivo; conditions: Wistar male rat, oral, 2 hours before antigen; versus tranilast (FIG. 2)
Method: Test Example 4--Antiallergic action in an orally administered rat (PCA method)
The antiallergic actions of Compound II-Compound VII were evaluated using rat cutaneous anaphylactic reaction (PCA reaction) employing tranilast, which is an oral antiallergic agent, as a positive control compound.
Test method (Antiallergic action by PCA reaction)
The test was carried out according to the method of Koda et al, {Int. Arch. Allergy Appl. Immunol. 87, 254(1988)}. The dorsum of a Wistar-strain male rat having a body weight of about 200 g was shaved and 0.1 ml of an antiserum showing 48 hours homologous PCA strength of 1:128-1:256 diluted with physiological saline was injected into the dorsum intracutaneously. […] After 30 minutes, the rat was brought to death by exsanguination and the pigment freckle generated on the back skin was cut out and the amount of the transuded pigment was determined. That means, the cut out skin was put in a test tube, 1 ml of 1N KOH was added and allowed to stand overnight at 37° C. to elute the pigment, and 9 ml of a mixture comprising acetone and 0.6N phosphoric acid (mixed at 13:5) was added thereto and shaken, and the insoluble substances were removed by filtration and the absorbency of the filtrate was measured at 620 nm and the amount of the pigment was determined. […]

5-lipoxygenase = target: T1, 5-lipoxygenase (Rattus norvegicus, UniProt P12527); experiment: 5-lipoxygenase inhibiting action (leucotriene production inhibiting action), RBL-1 cell homogenate; type: biochemical; conditions: arachidonic acid, 37° C., 5-HETE by HPLC
T1 construct: subjected to supersonic treatment and the cells were disrupted; endogenous in cells; host or cells: RBL-1 cells (homogenate)
T1 sequence (P12527 1-673): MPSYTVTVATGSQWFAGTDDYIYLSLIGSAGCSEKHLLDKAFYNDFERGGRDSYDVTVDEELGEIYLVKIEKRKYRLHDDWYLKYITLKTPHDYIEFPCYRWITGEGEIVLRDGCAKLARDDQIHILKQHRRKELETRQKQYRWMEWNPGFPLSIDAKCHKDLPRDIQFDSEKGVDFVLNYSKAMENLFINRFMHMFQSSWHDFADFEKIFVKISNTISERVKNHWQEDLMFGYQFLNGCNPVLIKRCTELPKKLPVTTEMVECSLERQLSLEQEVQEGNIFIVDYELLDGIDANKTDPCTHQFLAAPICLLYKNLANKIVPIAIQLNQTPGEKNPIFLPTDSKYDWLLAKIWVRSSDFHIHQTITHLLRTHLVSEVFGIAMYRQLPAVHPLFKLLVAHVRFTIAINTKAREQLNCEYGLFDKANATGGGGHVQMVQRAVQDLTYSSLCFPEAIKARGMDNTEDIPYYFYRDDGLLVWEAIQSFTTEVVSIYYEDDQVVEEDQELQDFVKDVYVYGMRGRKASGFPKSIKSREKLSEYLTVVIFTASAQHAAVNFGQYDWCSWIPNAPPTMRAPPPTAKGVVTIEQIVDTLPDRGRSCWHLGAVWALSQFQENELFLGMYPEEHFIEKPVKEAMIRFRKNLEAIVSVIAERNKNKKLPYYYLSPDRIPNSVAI
Method: Test method (5-lipoxygenase inhibition action)
That means, a RBL-1 cell suspension which was adjusted with a 50 mM phosphate buffer such that the number of cells became 1×10^7 cells/ml, was subjected to supersonic treatment and the cells were disrupted To 500 μl of the cell homogenate solution was added 10 μl of a specimen solution whose concentration was adjusted to different concentrations using a 1% DMSO, 10 μl of 100 mM CaCl2 and 10 μl of a 10 mg/ml arachidonic acid solution in MeOH and heated to 37° C. for 3 minutes. To a control was added 10 μl of a 1% DMSO instead of the specimen. To a blank, 10 μl of a 1% DMSO was added instead of the specimen, and 500 μl of a 50 mM phosphate buffer was added instead of RBL-1 cell suspension. Then 500 μl of MeOH was added thereto and the mixture was cooled with ice to stop the reaction, followed by mixing and centrifugation at 2000×g for 15 minutes Then the amount of 5-HETE in 10 μl of the supernatant liquid was measured using HPLC under the following conditions.
mobile phase; acetonitrile: 0.1% acetic acid=85:15
detection wave length; 235 nm
The inhibition ratio to 5-lipoxygenase activity was calculated according to the following formula.

guinea pig bowel = target: T2, guinea pig bowel (Cavia porcellus, UniProt P31389); experiment: Antihistaminic action with guinea pig bowel by Magnus' method; conditions: guinea pig ileum, histamine dose reaction curve, 37° C.; read-out: pA2 (index of the antihistaminic action) (converted)
T2 construct: the ileum was excised to a length of about 2 cm; from tissue; host or cells: guinea pig ileum
T2 sequence (P31389 whole entry): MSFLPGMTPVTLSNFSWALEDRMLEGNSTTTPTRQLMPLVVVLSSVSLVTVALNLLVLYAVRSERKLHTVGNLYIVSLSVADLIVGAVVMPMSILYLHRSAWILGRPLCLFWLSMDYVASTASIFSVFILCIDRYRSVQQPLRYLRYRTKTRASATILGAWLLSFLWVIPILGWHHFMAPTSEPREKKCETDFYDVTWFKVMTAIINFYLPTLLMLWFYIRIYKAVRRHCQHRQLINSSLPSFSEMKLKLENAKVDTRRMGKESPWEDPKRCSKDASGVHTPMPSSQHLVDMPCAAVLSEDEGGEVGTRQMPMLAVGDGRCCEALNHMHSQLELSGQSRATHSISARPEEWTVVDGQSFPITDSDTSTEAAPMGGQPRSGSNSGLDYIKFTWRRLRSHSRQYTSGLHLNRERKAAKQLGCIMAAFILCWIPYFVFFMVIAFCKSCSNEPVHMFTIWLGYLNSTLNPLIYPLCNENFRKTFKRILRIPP
Method: Test Example 3--Antihistaminic action
The antihistaminic action of the Compound V was tested with a guinea pig bowel by Magnus' method using diphenhydramine hydrochloride as a positive control.
A guinea pig which had been fasted overnight was struck to death and the ileum was excised to a length of about 2 cm and one end was suspended in an isotonic transducer and the other end was secured onto a fixed rod. The temperature of the temperature controlled bath was kept at 37° C. and the ileum was allowed to stand for about 30 minutes while a mixed gas comprising 95% of O2 and 5% of CO2 was introduced into 10 ml of Tyrode solution, and histamine of different concentrations was injected for training, then a dose reaction curve was obtained by administering histamine accumulatively in order of increasing concentration. Then after washing, a dose reaction curve in relation to the histamine was similarly obtained under administration of the specimen and pA2 was calculated.

Row | Compound | inhibition action on lipid peroxidation compared with BHT (rat liver microsome) | antiallergic activity compared with the positive control compound (tranilast) [1] | anti-oxidant action, ranking among the compounds of Test Example 1 (rat liver microsome; result in words) | pIC50 (5-lipoxygenase) | Kb (guinea pig bowel)
1 | Cc1cc(OCCCN2CCN(C(c3ccccc3)c3ccccc3)CC2)c(C)c(C)c1O [Compound III] | higher inhibition actions than BHT |  |  |  | 
2 | Cc1cc(OCCN2CCN(C(c3ccccc3)c3ccccc3)CC2)c(C)c(C)c1O [Compound II] | higher inhibition actions than BHT |  |  |  | 
3 | Cc1cc(OCCCCN2CCN(C(c3ccccc3)c3ccccc3)CC2)c(C)c(C)c1O [Compound IV] | higher inhibition actions than BHT | higher activity than that of the positive control compound |  |  | 
4 | Cc1cc(OCCCCCCN2CCN(C(c3ccccc3)c3ccccc3)CC2)c(C)c(C)c1O [Compound V] | higher inhibition actions than BHT | higher activity than that of the positive control compound | highest anti-oxidant action | 5.21 | 0.126 µM
